In US6989397B1, “Iron chelators and uses thereof” (University of Queensland, priority 1999, dated 2006):

What was measured:
neuroblastoma (NB) = details: cited from earlier work
[1] = test system: SK-N-MC neuroepithelioma cells; experiment: 59Fe release from prelabelled cells (iron efflux); assay type: cell-based, human; details: chelators 0.5–50 μM, 'most effective' refers to concentrations up to 10 μM
[2] = test system: SK-N-MC neuroepithelioma cells; experiment: internalized 59Fe uptake from 59Fe-transferrin; assay type: cell-based, human; details: chelators 0.5–50 μM, 3 hr, 'most effective' refers to concentrations up to 10 μM

Row | SMILES | decrease in bone infiltration of tumor cells (neuroblastoma (NB); 7 of 9 patients with neuroblastoma, 8 hr intravenous infusion) | decrease in tumor size (neuroblastoma (NB); in 1 patient with neuroblastoma) | efficacy at mobilizing 59Fe as a function of chelator concentration (FIG. 3A) [1] | efficacy at preventing 59Fe uptake from 59Fe-Tf as a function of chelator concentration (FIG. 3B) [2]
1 | CC(=O)N(O)CCCCCNC(=O)CCC(=O)N(O)CCCCCNC(=O)CCC(=O)N(O)CCCCCN [DFO, desferrioxamine, reference compound] | > 50% | 48% |  | 
2 | O=C(NN=Cc1ccccn1)c1cccs1 [PCTH, 2-pyridylcarboxaldehyde 2-thiophenecarboxyl hydrazone] |  |  | most effective chelators | most effective chelators
